Measurements as given in patent US8952192B2, “Phosphorylated and branched dihydroxy-pentane-dione (DPD) analogs as quorum sensing inhibitors in bacteria” (University of Maryland, College Park, priority 2011, dated 2015).

Tested on: S. typhimurium MET708
Experiment: Trispecies synthetic ecosystem (S. typhimurium, V. harveyi, E. coli): β-galactosidase activity
Type: cell-based
Details: trispecies co-culture, lacZ activity after 4 hours
Source text: To investigate the effect of the DPD analogs in a mixed bacterial environment, a synthetic ecosystem composed of three different bacterial populations was assembled. Specifically, S. typhimurium MET708, V. harveyi BB170 and E. coli W3110 (pCT6), each luxS^+ (Table 2), and each producing their native AI-2 were co-cultured in the same tubes. By design, each species was selected so that a different reporter probe would indicate the specific bacterium's QS response: S. typhimurium (MET708) expresses β-galactosidase; V. harveyi (BB170) elicits bioluminescience; and E. coli (W331) are engineered to synthesize GFP. In this way, their responses can be differentiated and quantified in response to AI-2.
The S. typhimurium MET708, V. harveyi BB170 and E. coli W3110 pCT6 were each cultured separately overnight in LM medium supplemented with the appropriate antibiotic. […] The V. harveyi luminescence response was measured after 2.5 hours. The S. typhimurium lacZ (β-galactosidase) activity was measured after 4 hours. The E. coli response was determined after 8 hours, by fixing the cells with 1:1 cold 4% paraformaldehyde and using flow cytometric analysis. Samples were analyzed by flow cytometery (FACS Canto II, BD 394 Biosciences), with 20,000 gated events analyzed per sample.

CC(C)CC(=O)C(=O)[C@@H](O)CO [Isobutyl-DPD, isobutyl-DPD]
decrease of S. typhimurium β-galactosidase activity: 4 fold
